The values that follow come from PubChem BioAssay (NCI).

Among the test systems are UO-31 renal; HCC-2998 colon; ACHN renal; M14 melanoma; SK-MEL-2 melanoma; HCT-116 colon; K-562 leukemia; MDA-MB-231 breast; RPMI-8226 leukemia; A498 renal.
Common to all, as to assay: inhibition of tumour cell growth, NCI panel, 48 h

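48-hour exposure; five concentrations; linearly interpolated endpoints. The concentration for 50% growth inhibition is given as GI50. TGI: total growth inhibition.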

As to `COc1cc[nH]c1/C=C1\C(=O)Nc2ccc(F)c(C#CC3(O)CCNCC3)c21`, the GI50 is 0.119 µM in the assay with UO-31 renal; 0.368 µM with HCC-2998 colon; 0.0262 µM in the assay on ACHN renal; 0.0413 µM with M14 melanoma; 0.00988 µM with SK-MEL-2 melanoma; 0.0125 µM with HCT-116 colon. Moreover, the GI50 in the assay on K-562 leukemia was 0.55 µM; with MDA-MB-231 breast, 0.169 µM; in the assay on RPMI-8226 leukemia, 0.372 µM; in the assay on A498 renal it was 0.108 µM. Moreover, the TGI with UO-31 renal was found to be 2.19 µM; in the assay with HCC-2998 colon, 0.979 µM; in the assay on ACHN renal it was 2.56 µM; with M14 melanoma, 0.684 µM; in the assay on SK-MEL-2 melanoma, 0.464 µM; in the assay on HCT-116 colon it was 2.76 µM. Moreover, the TGI was 2.51 µM in the assay on K-562 leukemia, 1 µM in the assay on MDA-MB-231 breast, 1.23 µM in the assay on RPMI-8226 leukemia and 0.568 µM with A498 renal.
Turning to `O=C(O)CCNC1CCCCC1`, the GI50 in the assay on UO-31 renal, in the assay on HCC-2998 colon, in the assay on ACHN renal, in the assay with M14 melanoma, in the assay on SK-MEL-2 melanoma and in the assay with HCT-116 colon was more than 100 µM each time. The GI50 with K-562 leukemia, in the assay with MDA-MB-231 breast, in the assay on RPMI-8226 leukemia and with A498 renal was more than 100 µM throughout. The TGI in the assay with UO-31 renal, in the assay on HCC-2998 colon, in the assay on ACHN renal, in the assay on M14 melanoma, in the assay on SK-MEL-2 melanoma and in the assay on HCT-116 colon was more than 100 µM each time. Further, the TGI in the assay on K-562 leukemia, with MDA-MB-231 breast, with RPMI-8226 leukemia and with A498 renal was more than 100 µM throughout.
As to `CC/C=C\C[C@@H](O)C/C=C1/C(=O)C=C[C@H]1C/C=C\CCCC(=O)OC`, the GI50 in the assay with UO-31 renal is 1.73 µM; in the assay with HCC-2998 colon, 2.1 µM; with ACHN renal, 1.97 µM; in the assay on M14 melanoma it was 2.39 µM; in the assay with SK-MEL-2 melanoma, 6.99 µM; in the assay on HCT-116 colon, 0.498 µM. In addition, the GI50 with K-562 leukemia is 0.987 µM; with MDA-MB-231 breast, 6.06 µM; in the assay with RPMI-8226 leukemia, 1.83 µM; in the assay on A498 renal it was 14.6 µM. The TGI with UO-31 renal turned out to be 3.34 µM; in the assay on HCC-2998 colon it was 3.61 µM; with ACHN renal it was 4.02 µM; with M14 melanoma, 8.38 µM; in the assay on SK-MEL-2 melanoma it was 21.6 µM; in the assay with HCT-116 colon, 2.53 µM. Besides, the TGI in the assay on K-562 leukemia was determined as 10.1 µM; in the assay with MDA-MB-231 breast it was 20.5 µM; in the assay on RPMI-8226 leukemia, 7.4 µM; with A498 renal, 28.1 µM.
`O=C(CCc1nnc2sc(-c3ccc(Cl)cc3Cl)nn12)c1nc2ccccc2[nH]1`: the GI50 is 0.838 µM in the assay on UO-31 renal; 1.42 µM in the assay with HCC-2998 colon; 0.337 µM with ACHN renal; 0.282 µM with M14 melanoma; 1.78 µM in the assay with SK-MEL-2 melanoma; 0.247 µM with HCT-116 colon. The GI50 in the assay with K-562 leukemia is 0.451 µM; with MDA-MB-231 breast, 0.746 µM; in the assay on RPMI-8226 leukemia, 0.422 µM; with A498 renal, 0.845 µM. Further, the TGI in the assay on UO-31 renal amounted to 2.24 µM; in the assay on HCC-2998 colon, 2.92 µM; with ACHN renal, 1.29 µM; in the assay with M14 melanoma, 1.03 µM; in the assay with SK-MEL-2 melanoma, 5.4 µM; in the assay with HCT-116 colon, 0.692 µM. Moreover, the TGI came to 2.56 µM in the assay with K-562 leukemia, 2.21 µM in the assay with MDA-MB-231 breast, 2.63 µM with RPMI-8226 leukemia and 2.26 µM in the assay with A498 renal.
In the case of `Nc1nc2c(nnn2C2CC(O)C(CO)O2)c(=O)[nH]1` (centres undefined), the GI50 with UO-31 renal was 3.96 µM; in the assay on HCC-2998 colon it was 3.63 µM; with ACHN renal, 1 µM; in the assay with M14 melanoma it was 4.47 µM; in the assay with SK-MEL-2 melanoma, 20.2 µM; in the assay on HCT-116 colon, 5.89 µM. Further, the GI50 in the assay on K-562 leukemia was 4.04 µM; with MDA-MB-231 breast it was 5.41 µM; in the assay with RPMI-8226 leukemia, 2.65 µM; with A498 renal, 8.22 µM. The TGI was more than 100 µM in the assay on UO-31 renal; more than 92 µM in the assay on HCC-2998 colon; more than 22.7 µM with ACHN renal; more than 92.1 µM in the assay on M14 melanoma; more than 100 µM in the assay with SK-MEL-2 melanoma; more than 100 µM in the assay on HCT-116 colon. Also, the TGI with K-562 leukemia is more than 100 µM; in the assay on MDA-MB-231 breast, more than 100 µM; with RPMI-8226 leukemia it was more than 100 µM; with A498 renal it was more than 48.1 µM.
In the case of `Nc1nc(N(Cc2ccccc2)c2ccccc2)c2cn[nH]c2n1`, the GI50 in the assay on UO-31 renal is 1.8 µM; in the assay on HCC-2998 colon, 6.41 µM; with ACHN renal, 5 µM; with M14 melanoma, 5.22 µM; in the assay with SK-MEL-2 melanoma it was 3.14 µM; in the assay with HCT-116 colon, 3.19 µM. Further, the GI50 was 2.49 µM in the assay on K-562 leukemia, 6.41 µM in the assay with MDA-MB-231 breast, 1.68 µM in the assay on RPMI-8226 leukemia and 3.03 µM in the assay with A498 renal. The TGI with UO-31 renal, in the assay on HCC-2998 colon, in the assay on ACHN renal, with M14 melanoma, in the assay with SK-MEL-2 melanoma and with HCT-116 colon was more than 100 µM each time. For the same compound, the TGI in the assay with K-562 leukemia is more than 100 µM; with MDA-MB-231 breast, more than 100 µM; in the assay on RPMI-8226 leukemia, more than 100 µM; in the assay on A498 renal, 9.23 µM.
In the case of `CC[C@@]1(c2ccccc2)C2=C(CC(C)(C)CC2=O)Nc2[nH]ncc21`, the GI50 in the assay with UO-31 renal, with HCC-2998 colon, with ACHN renal, in the assay on M14 melanoma, in the assay on SK-MEL-2 melanoma and with HCT-116 colon was more than 100 µM each time. Moreover, the GI50 in the assay with K-562 leukemia was more than 100 µM; in the assay with MDA-MB-231 breast it was more than 100 µM; in the assay on RPMI-8226 leukemia, more than 100 µM; in the assay with A498 renal it was 16.7 µM. Besides, the TGI in the assay with UO-31 renal, in the assay with HCC-2998 colon, in the assay on ACHN renal, in the assay on M14 melanoma, with SK-MEL-2 melanoma and in the assay with HCT-116 colon was more than 100 µM each time. The TGI in the assay with K-562 leukemia is more than 100 µM; with MDA-MB-231 breast, more than 100 µM; in the assay with RPMI-8226 leukemia, more than 100 µM; with A498 renal it was 56.3 µM.
For the compound `O=S(=O)(NC1=NCCN1C(=S)SN1CCn2c1nsc2=S)c1cccc(Cl)c1`, the GI50 with UO-31 renal was 14.4 µM; in the assay with HCC-2998 colon it was 22.5 µM; with ACHN renal, 13.8 µM; in the assay with M14 melanoma, 15.8 µM; with SK-MEL-2 melanoma, 26 µM; in the assay with HCT-116 colon, 13.2 µM. The GI50 is 13.4 µM in the assay with K-562 leukemia, 15.3 µM with MDA-MB-231 breast, 5.05 µM in the assay with RPMI-8226 leukemia and 34.3 µM in the assay with A498 renal. In addition, the TGI was found to be 28.6 µM in the assay with UO-31 renal; 37.3 µM in the assay with HCC-2998 colon; 30.6 µM in the assay on ACHN renal; 33.2 µM with M14 melanoma; 98.9 µM in the assay with SK-MEL-2 melanoma; 28.1 µM in the assay on HCT-116 colon. Also, the TGI in the assay with K-562 leukemia was more than 100 µM; in the assay on MDA-MB-231 breast it was 50.7 µM; with RPMI-8226 leukemia, more than 100 µM; in the assay with A498 renal, 81.5 µM.
Take `CCN(CC)CCCC(C)Nc1c2ccc(Cl)cc2nc2ccc(O)cc12` (centres undefined): the GI50 in the assay on UO-31 renal was 1.18 µM; in the assay on HCC-2998 colon, 2.44 µM; in the assay on ACHN renal it was 1.17 µM; in the assay on M14 melanoma, 1.56 µM; with SK-MEL-2 melanoma it was 4.78 µM; with HCT-116 colon, 1.13 µM. Moreover, the GI50 with K-562 leukemia is 2.22 µM; in the assay with MDA-MB-231 breast it was 2 µM; with RPMI-8226 leukemia, 2.4 µM; in the assay on A498 renal it was 0.457 µM. Besides, the TGI was 2.65 µM in the assay on UO-31 renal; 6.97 µM with HCC-2998 colon; 2.81 µM in the assay on ACHN renal; 2.99 µM in the assay on M14 melanoma; 19.9 µM in the assay on SK-MEL-2 melanoma; 3.08 µM in the assay with HCT-116 colon. Moreover, the TGI in the assay with K-562 leukemia is 8.94 µM; in the assay on MDA-MB-231 breast it was 5.39 µM; with RPMI-8226 leukemia, 6.76 µM; in the assay on A498 renal, 18.2 µM.
With `NC(=O)NS(=O)(=O)c1ccc(N2N=C(C(F)(F)F)CC2c2cc(C(F)(F)F)cc(C(F)(F)F)c2)cc1` (centres undefined), the GI50 in the assay with UO-31 renal was 0.0862 µM; in the assay with HCC-2998 colon, 10 µM; in the assay on ACHN renal it was 3.95 µM; with M14 melanoma, 4.96 µM; in the assay on SK-MEL-2 melanoma, 1.2 µM; in the assay with HCT-116 colon it was 3.07 µM. Also, the GI50 is 4.98 µM in the assay with K-562 leukemia, 10.2 µM with MDA-MB-231 breast, 1.38 µM in the assay on RPMI-8226 leukemia and 2.24 µM with A498 renal. Further, the TGI stood at 13.2 µM in the assay with UO-31 renal; 23.9 µM in the assay on HCC-2998 colon; 14.9 µM with ACHN renal; 21.1 µM in the assay with M14 melanoma; 9.5 µM in the assay on SK-MEL-2 melanoma; 14.7 µM with HCT-116 colon. The TGI in the assay on K-562 leukemia was more than 100 µM; in the assay on MDA-MB-231 breast, 22.7 µM; in the assay with RPMI-8226 leukemia, 3.74 µM; in the assay on A498 renal, 8.15 µM.
Consider `C#CCNC(=O)c1cccc2c1cc(C)n2-c1nc2c(c(NCc3ccccc3)n1)CCCC2`, for which the GI50 with UO-31 renal was 0.0242 µM; in the assay with HCC-2998 colon, 0.0164 µM; in the assay with ACHN renal, 0.0255 µM; in the assay on M14 melanoma, 0.0195 µM; in the assay with SK-MEL-2 melanoma it was 0.023 µM; in the assay with HCT-116 colon, 0.0109 µM. Moreover, the GI50 in the assay on K-562 leukemia is 0.0179 µM; in the assay on MDA-MB-231 breast, 0.0216 µM; with RPMI-8226 leukemia, 0.0107 µM; in the assay with A498 renal, 0.0218 µM. In addition, the TGI with UO-31 renal stood at 0.0678 µM; in the assay on HCC-2998 colon, 0.0331 µM; with ACHN renal, 0.11 µM; with M14 melanoma, 0.0439 µM; in the assay on SK-MEL-2 melanoma it was 0.0627 µM; with HCT-116 colon it was 0.0378 µM. The TGI in the assay on MDA-MB-231 breast amounted to 0.0546 µM; in the assay on RPMI-8226 leukemia it was 0.0537 µM; in the assay on A498 renal, 0.0591 µM.
